Experimental data published in patent US11346839B2, “Method for determining the interaction between a ligand and a receptor” (INSINGULO AB, priority 2018, dated 2022).
Where two headings read alike, the source gives them in different places.

Biological target: human-thrombin (Homo sapiens, UniProt P00734)
Conditions: Example 2, thrombin 1 pM
Protocol: To yield liposomes with a diameter of ˜100 nm first the required lipids were solved in chloroform and mixed. In total 5 mg 2-Oleoyl-1-palmitoyl-sn-glycero-3-phosphocholine, 0.01 mg, 1,2-dioleoyl-sn-glycero-3-phosphoethanolamine-N-dibenzocyclooctyl and 0.005 mg 1,2-dipalmitoyl-sn-glycero-3-phosphoethanolamine-N-(lissamine rhodamine B sulfonyl) were mixed together. The lipid mixture was vacuum dried overnight. The dried lipids were hydrated in 1 ml HBS (150 mM NaCl, 20 mM/L HEPES at pH7.2) under gentle agitation. The lipid suspension was extruded through a PC-membrane with 100 nm pore size eleven times. Concentration of the liposomes was determined by light absorption at 544 nm and the concentration of the liposome solution was adjusted to 2.5 mg/ml. This equals a liposome concentration of approximately 30 nM.
To immobilize thrombin at the liposomes via click chemistry an azide-group was introduced to thrombin via NHS coupling. Therefore, 100 μL of human-thrombin at 2 mg/ml was mixed with 200 μL high salt PBS-buffer (10 mM Na2HPO4, 1.8 mM KH2PO4, 400 mM NaCl+33.5% Glycerol (v/v) at pH 7.4 and 13 μL NHS-PEG4-Azide at 10 mM. The mixture was incubated for 30 minutes at RT. The reaction was stopped by the addition of 500 μL high salt PBS-buffer (10 mM Na2HPO4, 1.8 mM KH2PO4, 400 mM NaCl+33.5% Glycerol (v/v) at pH 6.6.
1.5 μL of the thrombin-azide were mixed with 48.5 μL icecold CHES-buffer (20 mM CHES, 150 mM NaCl) at pH 8.5 and subsequently 50 μL of the liposome solution is added. This mix was stored for at least 30 minutes on ice. 10 μL of the reaction mix was diluted with 990 μL icecold CHES-buffer (20 mM CHES, 150 mM NaCl) at pH 8.5.
After curing, into each well of the microplate 10 μL of a solution containing 1 mg/ml PLL-g-PEG and 1 mg/ml PLL-g-PEG-biotin are added. The plate was incubated for at least 1 h under gentle orbital agitation. After the incubation each well was washed 10-times with HBS-buffer. The dilution ratio of every washing step was at least 1:10. […]
The single molecule microscope was based on a Nikon Ti-E base. […] Images are recorded via a [sequence] […]

SMILES: N=C(N)c1ccc(CNC(=O)[C@@H]2CCN2C(=O)[C@H](NCC(=O)O)C2CCCCC2)cc1 [melagatran]
- kobs (one hundred wells summed, melagatran 7.4 nM (FIG. 6)): 0.22 s⁻¹
- kobs (single well, melagatran 7.4 nM (FIG. 4)): could not be reliably fitted
- kobs (two wells summed, melagatran 7.4 nM (FIG. 5)): 0.43 s⁻¹
